According to PubChem BioAssay (NCI):
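Interpolation was linear, between the two tested concentrations surrounding the appropriate level; five concentrations were tested over 48 hours in 96-well plates. The concentration for 50% growth inhibition is given as GI50. The concentration for full growth arrest is given as TGI.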

Columns and labels:
Assay in all cases: NCI anticancer screen, dose series, 48 h
HL-60(TB) leukemia = system: HL-60(TB) leukemia
MOLT-4 leukemia = system: MOLT-4 leukemia
LOX IMVI melanoma = system: LOX IMVI melanoma
HCT-116 colon = system: HCT-116 colon
OVCAR-3 ovarian = system: OVCAR-3 ovarian
OVCAR-5 ovarian = system: OVCAR-5 ovarian
OVCAR-8 ovarian = system: OVCAR-8 ovarian
UACC-257 melanoma = system: UACC-257 melanoma
HOP-92 NSCLC = system: HOP-92 NSCLC
M14 melanoma = system: M14 melanoma
T-47D breast = system: T-47D breast
HCT-15 colon = system: HCT-15 colon
HT29 colon = system: HT29 colon
ACHN renal = system: ACHN renal
SR leukemia = system: SR leukemia
CCRF-CEM leukemia = system: CCRF-CEM leukemia
SF-539 CNS = system: SF-539 CNS
786-0 renal = system: 786-0 renal
NCI-H460 lung = system: NCI-H460 lung
RXF 393 renal = system: RXF 393 renal
UACC-62 melanoma = system: UACC-62 melanoma
BT-549 breast = system: BT-549 breast
A498 renal = system: A498 renal
CAKI-1 renal = system: CAKI-1 renal
RPMI-8226 leukemia = system: RPMI-8226 leukemia
PC-3 prostate = system: PC-3 prostate
DU-145 prostate = system: DU-145 prostate
KM12 colon = system: KM12 colon
MDA-MB-231 breast = system: MDA-MB-231 breast
SNB-75 CNS = system: SNB-75 CNS
SN12C renal = system: SN12C renal
HCC-2998 colon = system: HCC-2998 colon
MCF7 breast = system: MCF7 breast
U251 CNS = system: U251 CNS
UO-31 renal = system: UO-31 renal
A549 NSCLC = system: A549 NSCLC
SK-OV-3 ovarian = system: SK-OV-3 ovarian
SK-MEL-28 melanoma = system: SK-MEL-28 melanoma
SW-620 colon = system: SW-620 colon
EKVX NSCLC = system: EKVX NSCLC
HOP-62 NSCLC = system: HOP-62 NSCLC
SK-MEL-5 melanoma = system: SK-MEL-5 melanoma
SNB-19 CNS = system: SNB-19 CNS
TK-10 renal = system: TK-10 renal
IGROV1 ovarian = system: IGROV1 ovarian
NCI/ADR-RES ovarian = system: NCI/ADR-RES ovarian
SF-295 CNS = system: SF-295 CNS
COLO 205 colon = system: COLO 205 colon
MALME-3M melanoma = system: MALME-3M melanoma
NCI-H23 lung = system: NCI-H23 lung
HS 578T breast = system: HS 578T breast
NCI-H226 lung = system: NCI-H226 lung
MDA-MB-435 = system: MDA-MB-435
SF-268 CNS = system: SF-268 CNS
OVCAR-4 ovarian = system: OVCAR-4 ovarian

## COc1ccc(C(=O)N2N=C(c3ccc(Br)cc3)CC2c2cn(-c3ccccc3)nc2-c2ccccc2)cc1 (stereo not given)
HL-60(TB) leukemia
  GI50: 30.5 µM
  TGI: > 50 µM
MOLT-4 leukemia
  GI50: 11.4 µM
  TGI: 25.3 µM
LOX IMVI melanoma
  GI50: 42.1 µM
  TGI: > 50 µM
HCT-116 colon
  GI50: 2.87 µM
  TGI: > 50 µM
OVCAR-3 ovarian
  GI50: 23.9 µM
  TGI: > 50 µM
OVCAR-5 ovarian
  GI50: > 50 µM
  TGI: > 50 µM
OVCAR-8 ovarian
  GI50: 8.55 µM
  TGI: > 50 µM
UACC-257 melanoma
  GI50: > 50 µM
  TGI: > 50 µM
HOP-92 NSCLC
  GI50: 1.79 µM
  TGI: 15.8 µM
M14 melanoma
  GI50: 15.7 µM
  TGI: > 50 µM
T-47D breast
  GI50: 13.4 µM
  TGI: > 50 µM
HCT-15 colon
  GI50: > 50 µM
  TGI: > 50 µM
HT29 colon
  GI50: > 50 µM
  TGI: > 50 µM
ACHN renal
  GI50: 18.9 µM
  TGI: > 50 µM
SR leukemia
  GI50: 7.78 µM
  TGI: 16.2 µM
CCRF-CEM leukemia
  GI50: 9.86 µM
  TGI: 29.7 µM
SF-539 CNS
  GI50: 39.5 µM
  TGI: > 50 µM
786-0 renal
  GI50: 19 µM
  TGI: > 50 µM
NCI-H460 lung
  GI50: 15.3 µM
  TGI: > 50 µM
RXF 393 renal
  GI50: 6.28 µM
  TGI: > 50 µM
UACC-62 melanoma
  GI50: 42.8 µM
  TGI: > 50 µM
BT-549 breast
  GI50: 30.6 µM
  TGI: > 50 µM
A498 renal
  GI50: 6.82 µM
  TGI: 28.5 µM
CAKI-1 renal
  GI50: 41.7 µM
  TGI: > 50 µM
RPMI-8226 leukemia
  GI50: > 50 µM
  TGI: > 50 µM
PC-3 prostate
  GI50: > 50 µM
  TGI: > 50 µM
DU-145 prostate
  GI50: 25 µM
  TGI: > 50 µM
KM12 colon
  GI50: > 50 µM
  TGI: > 50 µM
MDA-MB-231 breast
  GI50: 5.47 µM
  TGI: > 50 µM
SNB-75 CNS
  GI50: 30.3 µM
  TGI: > 50 µM
SN12C renal
  GI50: 47.4 µM
  TGI: > 50 µM
HCC-2998 colon
  GI50: > 50 µM
  TGI: > 50 µM
MCF7 breast
  GI50: > 50 µM
  TGI: > 50 µM
U251 CNS
  GI50: 13 µM
  TGI: > 50 µM
UO-31 renal
  GI50: 42.6 µM
  TGI: > 50 µM
A549 NSCLC
  GI50: 4.28 µM
  TGI: > 50 µM
SK-OV-3 ovarian
  GI50: 12.1 µM
  TGI: 36.3 µM
SK-MEL-28 melanoma
  GI50: > 50 µM
  TGI: > 50 µM
SW-620 colon
  GI50: > 50 µM
  TGI: > 50 µM
EKVX NSCLC
  GI50: > 50 µM
  TGI: > 50 µM
HOP-62 NSCLC
  GI50: 9.05 µM
  TGI: 44.5 µM
SK-MEL-5 melanoma
  GI50: 15 µM
  TGI: > 50 µM
SNB-19 CNS
  GI50: 20.4 µM
  TGI: > 50 µM
TK-10 renal
  GI50: 20.6 µM
  TGI: > 50 µM
IGROV1 ovarian
  GI50: 19.4 µM
  TGI: > 50 µM
NCI/ADR-RES ovarian
  GI50: 33 µM
  TGI: > 50 µM
SF-295 CNS
  GI50: 17 µM
  TGI: > 50 µM
COLO 205 colon
  GI50: > 50 µM
  TGI: > 50 µM
MALME-3M melanoma
  GI50: > 50 µM
  TGI: > 50 µM
NCI-H23 lung
  GI50: 20.8 µM
  TGI: > 50 µM
HS 578T breast
  GI50: 20.5 µM
  TGI: > 50 µM
NCI-H226 lung
  GI50: 18.3 µM
  TGI: > 50 µM
MDA-MB-435
  GI50: > 50 µM
  TGI: > 50 µM
SF-268 CNS
  GI50: 34.8 µM
  TGI: > 50 µM
OVCAR-4 ovarian
  GI50: 15.2 µM
  TGI: > 50 µM
